One data set has as its system SK-N-MC (neuroblastoma). In words: Anti-proliferation, cell count after 48 h (Coulter Counter), SK-N-MC. The data set is classed as cell-based. The following applies: neuronal, treated 48 hours, extrapolated from FIGS. 1-9. As for the experimental part:
(§1) In this study, the anti-proliferative effects of each of four glucosyl ether lipid compounds were assessed on a panel of epithelial cancer cell lines. Two Cglucosyl ether lipids in accordance with the invention (compounds 4 and 17) were evaluated. In addition, a 2′-deoxy C-glucosyl ether lipid (compound 2) and a 2′-amino-2′-deoxy O-glucosyl ether lipid (compound 3), were evaluated. Thirty mM stock concentration of each of the four compounds were prepared in ethanol.
(§2) The experimental procedure used is detailed in Lu, X. and Arthur, G., Cancer Res., 52:2806-2812 (1992), the pertinent parts of which are incorporated by reference. Briefly, the epithelial cancer cell lines, namely SK-N-MC and SK-N-SH (neuroblastoma); DU145 (prostate); A498 (kidney); MDA-MB-468, MDA-MB-231, HS578t, MCF-7 and BT549 (breast), were subcultured into 24-well plates and allowed to grow to exponential phase. The medium was changed and replaced with one containing the glucosyl ether lipid compounds ([…]) in 10% FBS-supplemented medium. The cell numbers in representative wells were determined at the time of addition of the compounds. After 48 hours, the cells were detached with trypsin and the numbers were determined with a Coulter Counter. The increase in cell numbers were expressed as a percentage relative to those in wells without any drug (control).
(§3) See Erukulla, et al., J. Med. Chem., 39:1545-1548 (1996), the pertinent portions of which are incorporated herein by reference. Table 1 summarizes the comparative test results for 17, 3, 4, and the 2-deoxy analog of 4, (3S)-3-O-methyl-4-O-hexadecyl-2′-deoxy-β-D-glucopyranosylbutane (compound 2), which had been described in our earlier paper (Yang et al., Org. Lett., 1:2149-2151 (1999)). The method utilized was the same as that described in Example 2 above, and the Gl50 values were extrapolated from the results shown in FIGS. 1-9. In all nine examples, the close similarity in antiproliferative activity is striking.

For data set [1] the following is noted: comparison with compound 1; cited from earlier work.
The test system of another data set is MCF-7 (breast). In words: Anti-proliferation, cell count after 48 h (Coulter Counter), MCF-7. The data set is classed as cell-based. The note with it: treated 48 hours, extrapolated from FIGS. 1-9. The method, then: as §1, §2, §3
The subject of a further data set is BT549 (breast). Put plainly: Anti-proliferation, cell count after 48 h (Coulter Counter), BT549. The following applies: treated 48 hours, extrapolated from FIGS. 1-9. The data set is classed as cell-based. The method, then:
as §1, §2, §3

The next data set has as its system SK-N-SH (neuroblastoma). Put plainly: Anti-proliferation, cell count after 48 h (Coulter Counter), SK-N-SH. The following applies: neuronal, treated 48 hours, extrapolated from FIGS. 1-9. In kind it is cell-based. The method, then:
as §1, §2, §3

Another data set concerns MDA-MB-231 (breast). Put plainly: Anti-proliferation, cell count after 48 h (Coulter Counter), MDA-MB-231. The data set is classed as cell-based. The following applies: treated 48 hours, extrapolated from FIGS. 1-9. The method, then:
as §1, §2, §3

The subject of a further data set is HS578T (breast). In words: Anti-proliferation, cell count after 48 h (Coulter Counter), HS578T. In kind it is cell-based. The note with it: treated 48 hours, extrapolated from FIGS. 1-9. As for the experimental part:
as §1, §2, §3

In data set [2] the test system is panel of epithelial cancer cell lines. In words: Cancer cell proliferation study, whole panel (FIGS. 1-9). The data set is classed as cell-based. The note with it: nine cancer cell lines, 48 hours, 10% FBS-supplemented medium. As for the experimental part: as §1, §2
In a further data set the test system is DU145 (prostate). Put plainly: Anti-proliferation, cell count after 48 h (Coulter Counter), DU145. The data set is classed as cell-based. The note with it: treated 48 hours, extrapolated from FIGS. 1-9. The method, then: as §1, §2, §3
The subject of the next data set is A498 (kidney). In words: Anti-proliferation, cell count after 48 h (Coulter Counter), A498. The data set is classed as cell-based. The following applies: treated 48 hours, extrapolated from FIGS. 1-9. The method, then:
as §1, §2, §3

A further data set relates to MDA-MB-468 (breast). Put plainly: Anti-proliferation, cell count after 48 h (Coulter Counter), MDA-MB-468. In kind it is cell-based. The following applies: treated 48 hours, extrapolated from FIGS. 1-9. As for the experimental part: as §1, §2, §3
A short description of another data set: Storage stability. In kind it is physicochemical. The following applies: stored at 0° C. As for the experimental part:
Deprotection and reduction of alkene 15 using H2 and 10% Pd/C afforded β-C-glycoside 16 in 85% yield. Of the several methods attempted for cleavage of the silyl group (e.g., Bu4NF, formic acid, acidic ionic exchange resin, and BF3, Et2O conditions), only BF3,Et2O in CH3CN gave a clean reaction (see King, et al., Tetrahedron Lett., 36:4563 (1995), the pertinent portions of which are incorporated herein by reference). The N-acetyl group was cleaved by using 2 N KOH/EtOH at reflux at 120° C. to afford the final product 4. [drawing 8]

As to `CCCCCCCCCCCCCCCCOC[C@H](CC[C@H]1C[C@@H](O)[C@H](O)[C@@H](CO)O1)OC` [Compound 2, (3S)-3-O-methyl-4-O-hexadecyl-2′-deoxy-β-D-glucopyranosylbutane, reference compound], the GI50 in the data set on SK-N-MC (neuroblastoma), in the data set with MCF-7 (breast), with BT549 (breast), in the data set on SK-N-SH (neuroblastoma), in the data set on MDA-MB-231 (breast) and with HS578T (breast) was greater than 15 µM in each case. Further, the GI50 with DU145 (prostate) was greater than 15 µM; in the data set on A498 (kidney), greater than 15 µM; with MDA-MB-468 (breast), 11.4 µM. The “antiproliferative activity of C-glycoside relative to O-glycoside compound 1” value in [1] is “several fold weaker activity”. In data set [2], the “anti-proliferative efficacy (increase in cell numbers relative to control)” value is listed as “generally less efficacious than the other two glycoside ether lipids evaluated”.

For the compound `CCCCCCCCCCCCCCCCOC[C@H](CC[C@@H]1O[C@H](CO)[C@@H](O)[C@H](O)[C@H]1N)OC` [Compound 4, (3S)-3-O-methyl-4-O-hexadecyl-2′-amino-2′-deoxy-β-Dlucopyranosylbutane], the GI50 in the data set with SK-N-MC (neuroblastoma) was 4.1 µM; in the data set on MCF-7 (breast), 8.1 µM; with BT549 (breast) it was 8.9 µM; with SK-N-SH (neuroblastoma), 4.1 µM; in the data set on MDA-MB-231 (breast) it was 9.1 µM; in the data set with HS578T (breast) it was 5.1 µM. Moreover, the results for the GI50 with DU145 (prostate), in the data set with A498 (kidney) and in the data set on MDA-MB-468 (breast) were 7.9 µM, 8.5 µM and 9 µM, respectively. Also, the “storage time without decomposition” value in “Storage stability” was “more than one month without any decomposition”.

As for `CCCCCCCCCCCCCCCCOC[C@H](CC[C@@H]1O[C@H](CO)[C@@H](O)[C@H](O)[C@H]1NC(C)=O)OC` [Compound 17, (3S)-3-O-Methyl-4-O-hexadecyl 2′-acetamido-2′-deoxy-β-D-glucopyranosylbutane], the GI50 was greater than 15 µM in the data set with SK-N-MC (neuroblastoma); 25 µM with MCF-7 (breast); 28.5 µM in the data set on BT549 (breast); greater than 15 µM with SK-N-SH (neuroblastoma); 40 µM in the data set with MDA-MB-231 (breast); 21 µM with HS578T (breast). Further, the GI50 in the data set on DU145 (prostate) is greater than 15 µM; in the data set with A498 (kidney), greater than 15 µM; in the data set with MDA-MB-468 (breast), 34.4 µM. Moreover, the “anti-proliferative efficacy (increase in cell numbers relative to control)” value in data set [2] was “generally less efficacious than the other two glycoside ether lipids evaluated”.

What is called GI50 is the concentration giving 50% growth inhibition.

(Values after patent US20020128214A1, “C-glucosyl ether lipids” (priority 2000, published 2002).)
